In data set [1] the test system is C. albicans strain SC5314. Put plainly: Assay for biofilm formation in the presence of β-peptide. The data set is classed as cell-based, Candida albicans. The method, then: The ability of Candida albicans to form biofilms in the presence of β-peptide was tested using a procedure modified from the protocol for testing biofilms pre-formed in 96-well plates. C. albicans strain SC5314 was grown in liquid yeast peptone dextrose (YPD) medium overnight at 30° C., and the cells were washed twice with PBS (pH 7.2). Cells were resuspended in RPMI 1640, and the cell concentration was adjusted to about 2×10^6 cells/mL in RPMI 1640.
Twofold serial dilutions of β-peptide and amphotericin B were prepared in RPMI 1640, and 50 μL of each dilution was added to wells of a 96-well plate. At least three replicates were included. β-Peptide-free control wells were also included. An equal volume of the cell suspension was added to give a final cell concentration of 1×10^6 cells/mL. Plates were covered and placed in a 37° C. incubator for 48 hours.
After allowing biofilms to form for 48 hours, nonadherent cells were removed from the wells by washing the biofilms three times with 200 μL of PBS per well. A 0.5 g/L XTT solution with 1 μM menadione was prepared, and 100 μL was added to each biofilm formation well and to empty wells for XTT background measurements. […] The absorbance of the solution in each well was measured at 490 nm, and the reduction of growth for biofilms grown in the presence of β-peptide and amphotericin B compared to biofilms grown in medium only was calculated from […]

Data set [2] has as its system human red blood cells (hRBC). Description: Hemolysis assay. The format is cell-based. As to the method: Hemolysis assay. The hemolysis assay was performed using human red blood cells (hRBC) as described previously (Raguse, et al. J. Am. Chem. Soc. 2002, 124, 12774-12785; Porter, et al. J. Am. Chem. Soc. 2005, 127, 11516-11529). The hRBC were washed three times in TRIS-buffered saline (TBS; 10 mM TRIS, 150 mM NaCl, pH 7.2) and then diluted to a concentration of 1% (v/v) in TBS. The hRBC suspension (80 μL) was added to twofold dilutions of peptides in TBS (20 μL) in a 96-well plate (Falcon). Wells containing hRBC treated with 20 μL TBS provided a negative control, and wells with high concentrations of the peptide melittin (Sigma) served as a positive control. After incubating at 37° C. for 1 h, plates were centrifuged, and 50 μL of the supernatant was diluted with 50 μL of water in a fresh 96-well plate. The absorbance of the diluted supernatant was measured at 405 nm, and the percent hemolysis for each well was calculated from
[formula] where A405^peptide is the absorbance for the supernatant of hRBC treated with peptide, A405^buffer is the absorbance for the supernatant of hRBC in TBS, and A405^completlysis is the average absorbance for the supernatant of cells treated with melittin at concentrations of 50-400 μg/mL. Experiments were performed in duplicate on at least two different days. Biofilm Antifungal Susceptibility Testing

The subject of data set [3] is Candida albicans (SC5314, ATCC 24433, ATCC 90028). The data set is classed as cell-based. The method, then:
Minimum inhibitory concentration assay. Minimum inhibitory concentrations (MIC) for the β-peptides were determined using the broth microdilution assay described by the Committee for Clinical and Laboratory Standards (formerly known as the National Committee for Clinical Laboratory Standards) (National Committee for Clinical Laboratory Standards Reference method for broth dilution antifungal susceptibility testing of yeasts: approved standard—second edition; NCCLS document M27-A2; NCCLS: Wayne, Pa., 2002). Three strains of Candida albicans were used: SC5314, ATCC 24433, and ATCC 90028. Cells were grown for 24 hours on Sabouraud dextrose agar at 30° C. After 24 hours of growth, the cells were suspended in 0.145 M saline, and the concentration was adjusted to between 1×10^6 cells/mL and 5×10^6 cells/mL in saline. The working suspension was obtained by diluting the suspension 1:1000 in RPMI 1640 (with L-glutamine and without sodium bicarbonate, Invitrogen) buffered with 0.145 mol/L 3-(N-morpholino) propanesulfonic acid (MOPS).
Twofold serial dilutions of stock solutions of α- or β-peptides or amphotericin B (Calbiochem, solubilized in dimethyl sulfoxide) were made in RPMI 1640, and 100 μL aliquots were put into 96-well plates (Falcon). An equal volume of the cell suspension was added to the wells for a total volume of 200 μL. Growth controls and sterility controls were included.
Plates were incubated at 35° C. for 48 h and then visually inspected for fungal growth. […] Experiments were performed in duplicate and repeated on at least two different days.

Data set [4] concerns Candida albicans biofilms (ATCC 90028, ATCC 24433, SC5314). Description: Biofilm antifungal susceptibility testing (pre-formed biofilms, XTT). The format is cell-based. As to the method: The susceptibility of Candida albicans biofilms to β-peptide treatment was evaluated using procedures based on the method described by Ramage and Lopez-Ribot. (Ramage, G.; Lopez-Ribot, J. L. Methods Mol. Med. 2005, 118, 71-79). ATCC 90028, ATCC 24433, and SC5314 were grown in liquid yeast peptone dextrose (YPD) medium overnight at 30° C. The cells were washed two times with phosphate-buffered saline (PBS, pH 7.2) and resuspended in RPMI 1640 (with L-glutamine and without sodium bicarbonate, Invitrogen) buffered with 0.145 mol/L 3-(N-morpholino) propanesulfonic acid (MOPS). After adjusting the cell suspension to about 1×10^6 cells/mL in RPMI 1640, 100 μL of the cell suspension was added to selected wells of flat-bottom 96-well plates (Falcon), leaving the last column of wells empty for background controls. Plates were covered and incubated at 37° C. for 48 hours to allow biofilms to form.
After formation, biofilms were washed three times with 200 μL of PBS per well to remove nonadherent cells. Twofold serial dilutions of β-peptide in RPMI 1640 were made, and 100 μL was added to the biofilms in the first 10 columns of the 96-well plates. RPMI 1640 without antifungal (100 μL) was added to the wells in column 11 to serve as a positive growth control. Plates were covered and incubated at 37° C. for an additional 48 hours and then washed as before.
A solution of 0.5 g/L of 2,3-bis(2-methoxy-4-nitro-5-sulfo-phenyl)-2H-tetrazolium-5-carboxanilide (XTT, Sigma) was prepared, and 10 mM menadione (Sigma) in acetone was added to give a final menadione concentration of 1 μM. The XTT solution (100 μL) was added to each well containing a biofilm and to the empty column of wells. The plates were incubated for 1.5 hours at 37° C. to allow the C. albicans cells to reduce the XTT. Following incubation, 75 μL of XTT solution was removed from each well and put into a new 96-well plate to measure the absorbance at 490 nm. The reduction of growth for each concentration of β-peptide was calculated from
[formula] where A490^peptide is the average absorbance for wells containing a specified concentration of a β-peptide, A490^no drug is the average absorbance for wells with biofilms not treated with antifungal, and A490^XTT is the average absorbance for wells containing only XTT. At least three replicates were included for each combination of β-peptide and C. albicans strains. Assay for Biofilm Formation in the Presence of β-Peptide

Data set [5] relates to C. albicans. The settings on record: cited from earlier work.
In data set [6] the test system is Candida albicans (SC5314, ATCC 24433, ATCC 90028). The settings on record: from NCCLS document M27-A2; cited from earlier work.
Setting [7] is: pH 7, physiological ionic strength.

Consider seven compounds from US9168329B2, “Beta-peptides with antifungal activity” (Wisconsin Alumni Research Foundation, priority 2006, dated 2015).

By MIC is commonly meant the lowest concentration found to suppress growth.

In the case of `CC(C)[C@@H](CC(=O)N[C@@H](CCCCN)CC(=O)N[C@H]1CCCC[C@@H]1C(=O)N[C@H](CC(=O)N[C@@H](CCCCN)CC(=O)N[C@H]1CCCC[C@@H]1C(=O)N[C@H](CC(=O)N[C@@H](CCCCN)CC(N)=O)C(C)C)C(C)C)NC(=O)[C@H]1CCCC[C@@H]1NC(=O)C[C@@H](N)Cc1ccc(O)cc1` [β-peptide 1, β^3Tyr-(ACHC-β^3Val-β^3Lys)3], in data set [1], the “biofilm-preventing concentration relative to planktonic MIC” value is on record as “two times its planktonic MIC” and the “concentration completely preventing biofilm formation” value was found to be 32 µg/mL. Further, the “% Hemolysis at MIC” value in data set [2] is recorded as 21%. For the same compound, the “Average MIC” value in data set [3] (average over three C. albicans strains, pH 7, physiological ionic strength, Table 1 prints no unit) came to 16 µg/mL. For the same compound, the “antifungal activity in the planktonic NCCLS assay (in words)” value (“antifungal activity” for short) in data set [3] (setting [7]) is given as “showed activity in the planktonic assay”. The “concentration killing (nearly all cells in) pre-formed biofilms” value in data set [4] (pre-formed biofilms) was 256 µg/mL.

magainin 2: the “concentration reducing C. albicans growth by 50%” value in data set [5] (pH 7, low ionic strength solutions) is “below 1 μg/ml”. Also, the “activity against C. albicans (in words)” value in data set [5] (pH 7, physiologic ionic strength) was “inactive”.

Take β^3Tyr-(ACHC-β^3Val-β^3Lys)2: in data set [3] (setting [7]), the “antifungal activity” value is “lacking activity in the planktonic assay”. The “activity in the biofilm killing assay (in words)” value in data set [4] (pre-formed biofilms) was “low activity”.

`C[C@@H]1[C@H](O)[C@@H](C)/C=C/C=C/C=C/C=C/C=C/C=C/C=C/[C@H](O[C@@H]2O[C@H](C)[C@@H](O)[C@H](N)[C@@H]2O)C[C@@H]2O[C@](O)(C[C@@H](O)C[C@@H](O)[C@H](O)CC[C@@H](O)C[C@@H](O)CC(=O)O[C@H]1C)C[C@H](O)[C@H]2C(=O)O` [Amphotericin B]: the MIC range in data set [6] was 0.3 to 2.2 µM.

Regarding `CCCCCCCCCCCCCCC(=O)N[C@H](CC(=O)N[C@H]1CCCC[C@@H]1C(=O)N[C@H]1CCCC[C@@H]1C(=O)N[C@@H](CCCCN)CC(=O)N[C@H]1CCCC[C@@H]1C(=O)N[C@H]1CCCC[C@@H]1C(=O)N[C@@H](CCCCN)CC(=O)N[C@H]1CCCC[C@@H]1C(=O)N[C@H]1CCCC[C@@H]1C(=O)N[C@@H](CCCCN)CC(N)=O)Cc1ccc(O)cc1` [C15-β^3Tyr-(ACHC-ACHC-β^3Lys)3], the “antifungal activity” value in data set [3] (setting [7]) is given as “lacking activity in the planktonic assay”. Also, the MIC in data set [3] (planktonic, strain not stated) is more than 128 µg/mL. Moreover, the “reduction in biofilm growth” value in data set [4] (at the highest concentration tested) is on record as “barely surpassed this mark”. For the same compound, the “activity in the biofilm killing assay (in words)” value in data set [4] (pre-formed biofilms) was “low activity”.

Turning to `OC(Cn1cncn1)(Cn1cncn1)c1ccc(F)cc1F` [fluconazole], the MIC range in data set [6] was 0.8 to 3.3 µM.

Consider β^3Tyr-ACHC-(ACHC-β^3Lys)3-ACHC-ACHC, for which the “antifungal activity” value in data set [3] (setting [7]) was “lacking activity in the planktonic assay”. In data set [4] (pre-formed biofilms), the “activity in the biofilm killing assay (in words)” value is on record as “low activity”.
